These results are taken from patent publication US7326680B1, “Uterine contraction inhibitors” (Shionogi & Co., Ltd., priority 1999, dated 2008).

pIC50: −log10 of the molar value. Bridge positions count the residues as written; N and C are the ends. Ends that are not written are not given here.

The subject of one assay is uterine strips. In words: Stimulation of contraction of uterine strips from rats not treated with estrogen. The format is cell-based, rat. Particulars: 1 nM oxytocin, 1 μM PGF2α or 10 nM bradykinin. On the procedure: (§1) In another experiment, rats without injection of 17β-estradiol were used. The effect of 100 nM AM on uterine contraction induced by 10 nM bradykinin, 1 nM oxytocin, or 1 μM PGF2α was tested in the presence or absence of 1 μM AM[22-52] or 1 μM CGRP[8-37].

In assay [1] the test system is bradykinin-induced contraction of rat uterine strips. In words: Bradykinin-induced contraction of isolated rat uterine strips. The format is cell-based. Particulars: 10 nM bradykinin; for effect on the inhibitory effect of AM on bradykinin-induced contraction: preliminary addition of 1 μM antagonist. On the procedure:
In a manner similar to that of Example 1, uterine strips were prepared and attached to an isotonic transducer in a modified KRB solution. At the time when 10 nM bradykinin (Peptide Institute, Inc.) was added to the modified KRB solution, myometrial contraction was continuously measured. 20 minutes after the addition of bradykinin, 100 nM AM or distilled water was further added.
as §1
(§2) In all measurements, the uterine strips were eventually contracted due to 45 mM KCl depolarization to confirm responses of the myometrium. The results are shown in FIGS. 6(a) to 6(f) and FIGS. 7(a) to 7(e).

For assay [2], the system named is spontaneous myometrial contraction of rat uterine strips. The assay can be described thus: Spontaneous contraction of isolated uterine strips from 17β-estradiol-treated female rats (isotonic transducer). Particulars: for effect on the contraction inhibitory effect of 1 to 100 nM AM (spontaneous contraction): 1 μM preliminary addition; for effect of the antagonist per se on spontaneous contraction: 1 μM, preliminary addition (15 min preincubation). The format is cell-based. On the procedure:
1 μg of 17β-estradiol in 0.2 ml of 30% ethanol was subcutaneously injected to 10 to 12 week old female rats.
On the following day, the rats were sacrificed by hammering their heads. Thereafter, the rats were decapitated, followed by exsanguination. The uteri were isolated from the rats. Each isolated uterus was cut into four fragments a to d (FIG. 1(A)). Portions of each strip to which blood vessels were attached were cut off, thereby obtaining uterine strips (FIG. 1(B)).
The effect of AM on the rat uterus was examined by measuring contractions of the uterine strips using an isotonic transducer TD-112S (manufactured by Nippon Kohden Corporation) where the tension was 1 g.
While the uterine strip was immersed in 30 ml of a modified Krebs-Ringer bicarbonate (KRB) solution with glucose) (hereinafter simply referred to as “modified KRB solution”), the uterine strip was attached to the isotonic transducer. The composition of the modified KRB solution is as follows: 122 mM NaCl, 26 mM NaHCO3, 5 mM KCl, 1 mM MgSO4.7H2O, 0.03 mM EDTA-2Na, 2.4 mM CaCl2, and 11 mM glucose; pH 7.4).
(§3) Myometrial contraction was continuously measured. After spontaneous rhythm of the uterine muscle was confirmed to be constant, 30 μl of 10^−4 M AM (experimental sample) or distilled water (control sample) was added to the respective modified KRB solution with glucose, where the concentration of AM was 100 nM. 30 minutes after the addition of AM or distilled water, 300 μl of 4.5 M KCl was added to make a KCl concentration of 45 mM.
In a manner similar to that of Example 1, uterine strips were prepared, and attached to an isotonic transducer in a modified KRB solution. Myometrial contraction was continuously measured. After it was confirmed that the spontaneous rhythm of uterine muscle became constant, 30 μl of 1×10^−6, 2×10^−6, 7×10^−6, 2×10^−5, or 7×10^−5 M AM (experimental samples), or distilled water (control sample) was added to the modified KRB solution at time 0 min (initial addition), 5 min later, 12 min later, 22 min later, and 32 min later, where AM concentrations were 1, 3, 10, 30, and 100 nM, respectively. Thereafter, after 45 minutes from the initial addition of AM or distilled water, 300 μl of 4.5 M KCl was added to the solution to be a KCl concentration of 45 mM.
8 to 12 weeks old female rats were used to prepare uterine strips in a manner similar to that of Example 1.
Thereafter, the uterine strip was placed in a tissue chamber filled with 30 ml of a modified KRB solution with aeration of 95% O2/5% CO2 at 37° C. to measure contraction of the uterine strip in a manner similar to that of Example 1. After 40 minutes of equilibrium, the uterine strip was preincubated for 15 minutes in the presence or absence of 1 μM AM[22-52] or 1 μM CGRP[8-37]. Thereafter, AM was added to the modified KRB solution in the tissue chamber to gradually increase the AM concentration from 1 nM to 100 nM, exposing the uterine strip to AM.

Assay [3] relates to galanin-induced tonic contraction of the uterus. The settings on record: Reference 7; cited from earlier work.
In assay [4] the test system is PGF2α-induced contraction of rat uterine strips. In words: PGF2α-induced contraction of isolated rat uterine strips. The format is cell-based. Particulars: 100 nM AM, 1 μM PGF2α, rats not treated with estrogen. Here is the method:
(§4) In another experiment, rats without injection of 17β-estradiol were used. The effect of 100 nM AM on uterine contraction induced by 10 nM bradykinin, 1 nM oxytocin, or 1 μM PGF2α was tested in the presence or absence of 1 μM AM[22-52] or 1 μM CGRP[8-37]. In all measurements, the uterine strips were eventually contracted due to 45 mM KCl depolarization to confirm responses of the myometrium. The results are shown in FIGS. 6(a) to 6(f) and FIGS. 7(a) to 7(e).

Assay [5] concerns muscle contraction due to activation of voltage-dependent Ca channels (45 mM KCl). The assay can be described thus: 45 mM KCl depolarization-induced contraction of rat uterine strips. The format is cell-based. Particulars: 100 nM AM, KCl added 30 min after AM. Here is the method: as §3, §2
For assay [6], the system named is oxytocin-induced contraction of rat uterine strips. In words: Oxytocin-induced contraction of isolated rat uterine strips. The format is cell-based. Particulars: 100 nM AM, 1 nM oxytocin, rats not treated with estrogen. On the procedure: as §4

With `CC[C@H](C)[C@@H]1NC(=O)[C@H](Cc2ccc(O)cc2)NC(=O)[C@@H](N)CSSC[C@@H](C(=O)N2CCC[C@H]2C(=O)N[C@@H](CC(C)C)C(=O)NCC(N)=O)NC(=O)[C@H](CC(N)=O)NC(=O)[C@H](CCC(N)=O)NC1=O` [oxytocin], the “stimulation of uterine contraction” value in the assay with uterine strips was “significantly stimulated contraction”.
Turning to “AM[22-52]: an antagonist for an AM receptor (TVQKLAHQIYQFTDKDKDNVAPRSKISPQGY; ends and bridges not checked; UniProt P35318 116-146, looked up, fragment) [reference compound]”, the “effect on the inhibitory effect of AM on bradykinin-induced contraction” value in assay [1] (100 nM AM) was “eliminated”. For the same compound, in assay [2], the “effect on the contraction inhibitory effect of 1 to 100 nM AM (spontaneous contraction)” value is “substantially completely prevents” and the “effect of the antagonist per se on spontaneous contraction” value is recorded as “had no effect”.
Turning to “CGRP[8-37]: an antagonist for a CGRP receptor (VTHRLAGLLSRSGGVVKNNFVPTNVGSKAF; ends and bridges not checked; UniProt P06881 90-119, looked up, fragment) [reference compound]”, the “effect on the inhibitory effect of AM on bradykinin-induced contraction” value in assay [1] (100 nM AM) is listed as “eliminated”. The “effect on the action of AM on galanin-induced tonic contraction” value in assay [3] is on record as “eliminated”. In assay [2], the “effect on the contraction inhibitory effect of 1 to 100 nM AM (spontaneous contraction)” value is recorded as “substantially completely prevents” and the “effect of the antagonist per se on spontaneous contraction” value is “had no effect”.
In general, pIC50 refers to the negative decadic logarithm of the IC50, by convention in mol/L. For the compound “YRQSMNQGSRSTGCRFGTCTMQKLAHQIYQFTDKDKDGMAPRNKISPQGY-NH2 (disulfide 14-19; C-terminus assumed) [AM]”, in assay [4], the “effect on contraction induced by PGF2α” value was “almost no effect”. The “effect on bradykinin-induced contraction” value in assay [1] (100 nM AM added 20 min later, estradiol-treated rats, Example 3) is listed as “inhibited”; in assay [1] (100 nM AM, rats not treated with estrogen, Example 4), “completely blocked”. Further, in assay [5], the “effect on contraction caused by 45 mM KCl” value is on record as “does not affect”. Besides, the “effect on contraction induced by oxytocin” value in assay [6] is “almost no effect”. The “concentration at which galanin-induced tonic contraction of the uterus was inhibited” value in assay [3] was at least 5 µM. The “effect on spontaneous myometrial contraction” value in assay [2] (100 nM AM, Example 1, FIGS. 2(c), 2(d)) is “significantly inhibited”. Also, the “effect on spontaneous myometrial contraction, cumulative concentrations” value in assay [2] (1, 3, 10, 30, 100 nM AM, Example 2, FIGS. 3(a), 3(b)) is “inhibited by the addition of AM in a concentration-dependent manner”. Further, the pIC50 in assay [2] (AM 1 to 100 nM, estradiol-treated rats, Example 4, read-out: IC50 of inhibition of spontaneous contraction) was 7.64. In assay [2] (washing out and exchanging the modified KRB solution after 100 nM AM), the “reversibility of the inhibitory effect on spontaneous contraction” value is given as “could be reversed”.
Turning to prostaglandin F2α [PGF2α], the “stimulation of uterine contraction” value in the assay with uterine strips is given as “significantly stimulated contraction”.
